Read-outs that look alike come from different tables or passages of the source.
Tests used:
hNav1.7 = hNav1.7 (Homo sapiens, UniProt Q15858); format: cell-based
hNav1.2 = hNav1.2 (Homo sapiens, UniProt Q99250); format: cell-based
hNav1.5 [1] = target: T1, hNav1.5 (Homo sapiens, UniProt Q14524); format: cell-based; conditions: for Na+ entry through hNav1.5 in action potential-mimicking protocol: 10 μM TTX-subtracted current
Wistar-Han rats = format: in vivo, rat; conditions: for QTc / RR / P wave / PR / QRS / T wave area: mean ± SEM
hNav1.3 = hNav1.3 (Homo sapiens, UniProt Q9NY46); format: cell-based
hNav1.5 [2] = target: T1, hNav1.5; assay: Manual patch-clamp on HEK293-Nav1.5; format: cell-based; conditions: 10 nM; HP −120 mV, 1000-ms step to −20 mV, RT
Procedure: Whole-cell Nav currents were recorded at RT from HEK293 stably expressing hNav1.5, using an Axopatch 200A amplifier (Axon Instruments, Molecular Devices). Voltage-clamp protocols were applied using the pClamp 10.4 software suite (Axon Instruments), interfaced with the electrophysiological setup through a Digidata 1440A digitizer (Axon Instruments). Patch-clamp pipettes were fabricated from borosilicate glass capillaries (outer diameter: 1.5 mm; inner diameter: 0.86 mm; Sutter Instrument) using a P-97 micropipette puller (Sutter Instrument), yielding a pipette resistance of 0.8–1.5 MΩ when filled with the internal solution. The internal solution contained (in mM) 10 CsCl, 110 CsF, 10 NaCl, 10 EGTA, and 10 HEPES (pH 7.2, osmolarity 280 mOsm). The external solution contained (in mM) 100 NaCl, 4 KCl, 40 NMDG, 2 CaCl2, 1 MgCl2, 5 glucose, and 10 HEPES (pH 7.4, osmolarity 298 mOsm). All chemicals were purchased from Sigma-Aldrich. After 80% series resistance compensation, 1000-ms depolarizing steps to −20 mV were applied from a HP of −120 mV to record sodium current under control conditions, following application of 10 nM AaH-II*. Sweeps were delivered every 5 s. Current signals were filtered at 10 kHz before digitization at 50 kHz and storage. […] Data were compiled and analysed using ClampFit 11.2 (Axon Instruments), Microsoft Excel, and GraphPad Software Prism.

[3] = test system: adult rat ventricular cardiomyocytes; assay: Calcium imaging (SCR events) in isolated rat cardiomyocytes; format: cell-based
Procedure: Eleven-week-old Wistar Han rats were euthanized by intraperitoneal (i.p.) injection of a lethal dose of pentobarbital (140 mg/kg, Euthasol®). Subsequently, the hearts were quickly excised and rinsed in cold calcium-free Tyrode solution with the following composition (in mM): 118 NaCl, 4.17 KCl, 1.2 MgSO4, 1.2 KH2PO4, 21 NaHCO3, 11 glucose, and 5 taurine, at pH 7.4. The aorta was promptly cannulated, and the hearts were perfused in a retrograde fashion with warm (37–38°C) Tyrode containing 1.25 mM CaCl2 to flush the coronary arteries of blood and then with a Tyrode solution supplemented with 1 mg/mL collagenase type 2 (Worthington Biochemical Corp, Lakewood, NJ) and 0.2 U.mL^−1 protease type XIV (Sigma, Poole, UK) during 15–20 min. Once enzymatic digestion is completed, ventricles were shredded into small pieces with surgical scissors in 0.5 mM Ca^2+ Tyrode solution, filtered through a 200-µm mesh, and then resuspended in 1 mM Ca^2+ Tyrode solution for 1 h at RT. Isolated cardiomyocytes were incubated in the dark with Fura-2-AM calcium probe (2 µM in 20% v/v DMSO; Life Technologies) for 15 min. Cardiomyocytes were then loaded onto the IonOptix system (IonOptix Corporation, U.S.A.) and perfused with warm (37°C) Tyrode solution. Cardiomyocytes were stimulated at 0.5 Hz using a MyoPacer field stimulator (20 V, 7 ms) to achieve steady state. Fura-2 fluorescence (F) at 510 nm was used to measure cytoplasmic Ca^2+ concentration variation by exciting with UV light at 340 and 380 nm. Cells were paced for 1 to 2 min, ensuring stabilization of the signals, and the effects of the peptides were measured at the end of a 5 min application time. 30-s-long periods were used as the unit duration (representing 15 Ca^2+ transients) during control and after the perfusion of the compound to count the number of arrhythmogenic transients.

in vivo = conditions: Wistar-Han, rat, iv
hNav1.4 = hNav1.4 (Homo sapiens, UniProt P35499); format: cell-based
[4] = test system: adult rat ventricular myocytes; format: cell-based; conditions: HP −120 mV, 1-s pulse to −20 mV
hNav1.1 = hNav1.1 (Homo sapiens, UniProt P35498); format: cell-based
[5] = representative traces, test 0 mV
[6] = highest effective AaH-II* concentration

T1 sequence (Q14524 other isoform, or with tags, fused parts or gaps): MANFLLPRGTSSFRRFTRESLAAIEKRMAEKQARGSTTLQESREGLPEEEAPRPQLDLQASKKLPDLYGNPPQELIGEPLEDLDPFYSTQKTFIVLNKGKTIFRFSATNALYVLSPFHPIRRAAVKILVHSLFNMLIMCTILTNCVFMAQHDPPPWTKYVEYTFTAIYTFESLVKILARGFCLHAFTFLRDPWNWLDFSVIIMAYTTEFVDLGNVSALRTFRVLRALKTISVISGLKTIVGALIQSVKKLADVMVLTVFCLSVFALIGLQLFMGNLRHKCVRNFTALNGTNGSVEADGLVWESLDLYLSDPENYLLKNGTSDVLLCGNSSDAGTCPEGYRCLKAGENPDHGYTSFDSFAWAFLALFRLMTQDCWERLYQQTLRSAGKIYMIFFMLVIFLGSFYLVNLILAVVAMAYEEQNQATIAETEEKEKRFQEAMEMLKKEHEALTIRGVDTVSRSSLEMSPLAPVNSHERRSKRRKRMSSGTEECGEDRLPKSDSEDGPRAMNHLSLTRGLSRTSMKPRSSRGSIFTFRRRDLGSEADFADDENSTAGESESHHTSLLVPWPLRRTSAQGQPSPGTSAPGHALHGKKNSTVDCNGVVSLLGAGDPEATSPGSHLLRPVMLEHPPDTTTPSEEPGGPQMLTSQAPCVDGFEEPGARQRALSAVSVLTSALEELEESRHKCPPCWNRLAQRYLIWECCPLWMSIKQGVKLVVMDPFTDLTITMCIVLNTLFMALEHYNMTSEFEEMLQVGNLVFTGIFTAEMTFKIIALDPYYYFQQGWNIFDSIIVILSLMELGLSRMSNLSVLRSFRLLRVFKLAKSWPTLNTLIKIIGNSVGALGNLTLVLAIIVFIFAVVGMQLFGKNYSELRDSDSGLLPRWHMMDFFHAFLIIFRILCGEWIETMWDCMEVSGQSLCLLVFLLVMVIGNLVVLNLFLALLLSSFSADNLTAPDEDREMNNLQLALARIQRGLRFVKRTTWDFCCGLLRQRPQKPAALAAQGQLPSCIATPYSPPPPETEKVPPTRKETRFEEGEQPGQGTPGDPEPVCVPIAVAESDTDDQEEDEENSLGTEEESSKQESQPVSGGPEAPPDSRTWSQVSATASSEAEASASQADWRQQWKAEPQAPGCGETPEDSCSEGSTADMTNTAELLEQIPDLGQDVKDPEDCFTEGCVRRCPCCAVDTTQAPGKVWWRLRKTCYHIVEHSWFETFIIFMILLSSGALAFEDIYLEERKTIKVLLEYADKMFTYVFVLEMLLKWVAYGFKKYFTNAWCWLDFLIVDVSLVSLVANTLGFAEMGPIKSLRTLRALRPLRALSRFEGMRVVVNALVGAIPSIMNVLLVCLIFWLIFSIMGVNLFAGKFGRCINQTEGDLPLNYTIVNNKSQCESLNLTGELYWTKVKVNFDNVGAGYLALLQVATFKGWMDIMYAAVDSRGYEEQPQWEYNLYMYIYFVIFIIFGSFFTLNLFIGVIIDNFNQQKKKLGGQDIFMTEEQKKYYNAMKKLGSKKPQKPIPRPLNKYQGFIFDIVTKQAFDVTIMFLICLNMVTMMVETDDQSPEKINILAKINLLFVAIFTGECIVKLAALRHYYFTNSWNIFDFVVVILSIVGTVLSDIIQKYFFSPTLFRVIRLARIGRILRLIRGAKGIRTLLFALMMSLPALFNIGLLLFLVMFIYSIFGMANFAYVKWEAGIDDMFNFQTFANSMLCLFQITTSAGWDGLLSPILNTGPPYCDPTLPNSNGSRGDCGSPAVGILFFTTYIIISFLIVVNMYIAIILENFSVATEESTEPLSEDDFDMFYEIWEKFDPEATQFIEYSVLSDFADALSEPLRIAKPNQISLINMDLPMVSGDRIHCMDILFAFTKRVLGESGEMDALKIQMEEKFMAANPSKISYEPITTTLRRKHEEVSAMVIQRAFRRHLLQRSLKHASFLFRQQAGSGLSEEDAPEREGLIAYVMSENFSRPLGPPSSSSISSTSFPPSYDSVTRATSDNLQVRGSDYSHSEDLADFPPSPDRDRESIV
hNav1.7, sequence (Q15858 whole entry): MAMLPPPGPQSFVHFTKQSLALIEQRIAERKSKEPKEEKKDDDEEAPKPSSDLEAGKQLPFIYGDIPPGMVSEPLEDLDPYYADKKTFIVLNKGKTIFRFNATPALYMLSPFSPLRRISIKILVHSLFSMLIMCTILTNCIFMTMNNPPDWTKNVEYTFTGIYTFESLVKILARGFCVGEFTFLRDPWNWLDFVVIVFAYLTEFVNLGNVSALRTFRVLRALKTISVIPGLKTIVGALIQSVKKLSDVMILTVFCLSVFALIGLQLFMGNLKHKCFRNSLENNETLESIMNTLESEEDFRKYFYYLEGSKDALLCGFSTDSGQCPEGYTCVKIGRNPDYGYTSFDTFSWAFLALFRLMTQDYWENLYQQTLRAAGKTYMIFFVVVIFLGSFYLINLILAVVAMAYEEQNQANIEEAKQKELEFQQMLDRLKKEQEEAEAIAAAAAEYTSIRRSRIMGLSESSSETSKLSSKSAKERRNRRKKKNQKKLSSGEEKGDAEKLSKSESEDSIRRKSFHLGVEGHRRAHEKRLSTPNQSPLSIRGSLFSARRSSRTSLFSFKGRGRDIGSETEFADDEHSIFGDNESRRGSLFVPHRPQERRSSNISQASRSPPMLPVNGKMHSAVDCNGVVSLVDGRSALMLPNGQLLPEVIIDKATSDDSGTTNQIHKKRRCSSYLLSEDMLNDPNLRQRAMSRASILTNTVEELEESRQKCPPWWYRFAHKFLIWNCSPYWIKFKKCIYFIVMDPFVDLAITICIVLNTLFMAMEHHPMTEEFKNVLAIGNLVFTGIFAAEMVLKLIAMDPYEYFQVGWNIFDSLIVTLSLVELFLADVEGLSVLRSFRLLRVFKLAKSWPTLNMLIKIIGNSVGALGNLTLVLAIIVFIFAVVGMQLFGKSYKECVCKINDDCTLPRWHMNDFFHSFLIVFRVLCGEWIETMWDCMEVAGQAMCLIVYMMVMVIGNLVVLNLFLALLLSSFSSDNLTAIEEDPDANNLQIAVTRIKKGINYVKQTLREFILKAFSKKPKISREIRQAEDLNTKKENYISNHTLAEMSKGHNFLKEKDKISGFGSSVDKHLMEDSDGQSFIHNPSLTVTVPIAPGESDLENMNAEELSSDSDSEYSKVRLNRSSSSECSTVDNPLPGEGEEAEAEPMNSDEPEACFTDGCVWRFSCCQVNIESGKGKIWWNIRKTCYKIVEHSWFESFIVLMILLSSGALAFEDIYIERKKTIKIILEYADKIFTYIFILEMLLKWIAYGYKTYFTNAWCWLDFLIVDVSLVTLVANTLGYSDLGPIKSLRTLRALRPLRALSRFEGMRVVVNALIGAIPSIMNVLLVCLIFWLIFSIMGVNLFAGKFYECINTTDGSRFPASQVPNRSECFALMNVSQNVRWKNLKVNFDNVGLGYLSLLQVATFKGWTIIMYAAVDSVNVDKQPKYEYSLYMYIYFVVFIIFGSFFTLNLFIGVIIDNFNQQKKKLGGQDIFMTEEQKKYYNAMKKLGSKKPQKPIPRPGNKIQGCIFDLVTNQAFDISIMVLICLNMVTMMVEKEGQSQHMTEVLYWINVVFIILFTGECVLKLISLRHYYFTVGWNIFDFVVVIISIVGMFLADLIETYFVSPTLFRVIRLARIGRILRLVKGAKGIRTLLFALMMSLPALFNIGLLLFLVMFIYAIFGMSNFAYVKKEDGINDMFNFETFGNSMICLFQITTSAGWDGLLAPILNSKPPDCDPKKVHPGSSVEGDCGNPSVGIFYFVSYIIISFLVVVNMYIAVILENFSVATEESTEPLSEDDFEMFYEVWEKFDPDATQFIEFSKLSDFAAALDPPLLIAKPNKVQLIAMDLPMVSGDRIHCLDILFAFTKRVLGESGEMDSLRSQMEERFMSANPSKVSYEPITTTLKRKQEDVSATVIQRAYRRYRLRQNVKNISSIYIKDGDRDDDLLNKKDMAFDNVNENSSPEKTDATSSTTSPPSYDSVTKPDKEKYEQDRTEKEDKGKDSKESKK

CC[C@H](C)[C@H](NC(=O)[C@H](Cc1ccc(O)cc1)NC(=O)CNC(=O)[C@H](CC(=O)O)NC(=O)[C@H](CCCCN)NC(=O)[C@@H](N)C(C)C)C(=O)N[C@H](C(=O)N[C@@H](CC(=O)O)C(=O)N[C@@H](CC(=O)O)C(=O)N[C@H](C(=O)N[C@@H](CC(N)=O)C(=O)N[C@H]1CSSC[C@@H](C(=O)N[C@@H](Cc2c[nH]cn2)C(N)=O)NC(=O)[C@H](CCCCN)NC(=O)CNC(=O)[C@@H]2CCCN2C(=O)CNC(=O)[C@H](CCCCN)NC(=O)[C@H]([C@@H](C)O)NC(=O)[C@H](CCCNC(=N)N)NC(=O)[C@H](C(C)C)NC(=O)[C@H](Cc2c[nH]cn2)NC(=O)[C@H](CC(=O)O)NC(=O)[C@@H]2CCCN2C(=O)[C@H](CC(C)C)NC(=O)[C@H](CCCCN)NC(=O)[C@H](Cc2ccc(O)cc2)NC(=O)[C@@H]2CSSC[C@@H]3NC(=O)[C@H](CCC(=O)O)NC(=O)[C@H](CCC(=O)O)NC(=O)[C@H](CC(N)=O)NC(=O)[C@@H]4CSSC[C@H](NC(=O)[C@H](C)NC(=O)[C@H](CC(N)=O)NC(=O)CNC(=O)[C@H](Cc5ccc(O)cc5)NC(=O)[C@@H]5CCCN5C(=O)[C@H](CO)NC(=O)[C@H](C)NC(=O)[C@H](Cc5c[nH]c6ccccc56)NC(=O)[C@H](CCC(N)=O)NC(=O)[C@H](CSSC[C@H](NC(=O)[C@H](Cc5ccccc5)NC(=O)[C@H](Cc5ccc(O)cc5)NC(=O)[C@H]([C@@H](C)O)NC1=O)C(=O)NCC(=O)N[C@@H](CCCNC(=N)N)C(=O)N[C@@H](CC(N)=O)C(=O)N[C@@H](C)C(=O)N[C@@H](Cc1ccc(O)cc1)C(=O)N4)NC(=O)[C@H](Cc1ccc(O)cc1)NC(=O)CNC(=O)[C@H](CO)NC(=O)[C@H](CCC(=O)O)NC(=O)CNC(=O)[C@H](CCCCN)NC(=O)[C@H](CC(C)C)NC(=O)[C@H](CCCCN)NC(=O)[C@H]([C@@H](C)O)NC3=O)C(=O)N[C@@H](Cc1ccc(O)cc1)C(=O)N2)C(C)C)C(C)C [AaH-II*]
INaL after 1 s depolarization (hNav1.7; 10 nM): lacked sufficient INaL at 1 s depolarization
shift in voltage-dependence of activation (hNav1.7; 10 nM): AaH-II*-mediated shift in voltage-dependence of activation
concentration at which INaL is triggered / becomes noticeable (hNav1.7; [5]): 1 nM
hNav1.2 peak current inhibition (hNav1.2; above 1 nM): not observed
INaL after 1 s depolarization (hNav1.2; hNav1.2, 10 nM): significant INaL current at 1 s depolarization
shift in voltage-dependence of activation (hNav1.2; hNav1.2, 10 nM): lacked a significant shift in voltage-dependence of activation
concentration at which INaL is triggered / becomes noticeable (hNav1.2; hNav1.2, representative traces, test 0 mV): 0.1 nM
Na+ entry through hNav1.5 in action potential-mimicking protocol (hNav1.5 [1]; 0.1 nM): indistinguishable from the control condition
Na+ entry through hNav1.5 in action potential-mimicking protocol (hNav1.5 [1]; 10 nM): capable of generating a measurable Na^+ current
INaL after 1 s depolarization (hNav1.5 [1]; hNav1.5, 10 nM): absence of AaH-II*-mediated INaL after 1 s depolarization
shift in voltage-dependence of activation (hNav1.5 [1]; hNav1.5, 10 nM): lack of shift in the voltage-dependence of activation and inactivation
maximal INaL stimulation (maximal AUC) (hNav1.5 [1]; hNav1.5, highest effective AaH-II* concentration): ~19 fold
concentration at which INaL is triggered / becomes noticeable (hNav1.5 [1]; hNav1.5, representative traces, test 0 mV): 0.3 nM
arrhythmic rats (rats / all rats) (Wistar-Han rats; AaH-II* 3 μg/kg i.v.): none of the rats were arrhythmic
QTc (Wistar-Han rats; AaH-II* 3 µg/kg i.v., QTc = QT/(RR/100)^1/2, n = 5): 54.9 ± 5.2
RR (Wistar-Han rats; AaH-II* 3 µg/kg i.v., anaesthetized rats, lead I, n = 5): 153.7 ± 5.6 ms
P wave (Wistar-Han rats; AaH-II* 3 µg/kg i.v., n = 5): 17.5 ± 0.3 ms
PR (Wistar-Han rats; AaH-II* 3 µg/kg i.v., n = 5): 47.5 ± 1.4 ms
QRS (Wistar-Han rats; AaH-II* 3 µg/kg i.v., n = 5): 16.9 ± 1.0 ms
T wave area (Wistar-Han rats; AaH-II* 3 µg/kg i.v., n = 5): 1.8 ± 0.5 mV/ms
rats with A-V blocks/ PVCs (rats / all rats) (Wistar-Han rats; AaH-II* 15 μg/kg i.v.): in all rats
P wave (Wistar-Han rats; AaH-II* 15 µg/kg i.v., n = 6): 18.0 ± 0.8 ms
PR (Wistar-Han rats; AaH-II* 15 µg/kg i.v., n = 6): 53.2 ± 5.4 ms
QRS (Wistar-Han rats; AaH-II* 15 µg/kg i.v., n = 6): 18.0 ± 0.6 ms
RR (Wistar-Han rats; AaH-II* 15 µg/kg i.v., n = 6): 181.6 ± 2.7 ms
T wave area (Wistar-Han rats; AaH-II* 15 µg/kg i.v., n = 6): 3.2 ± 0.5 mV/ms
P wave (Wistar-Han rats; AaH-II* 30 µg/kg i.v., n = 6): 18.9 ± 0.8 ms
PR (Wistar-Han rats; AaH-II* 30 µg/kg i.v., n = 6): 53.8 ± 2.2 ms
QRS (Wistar-Han rats; AaH-II* 30 µg/kg i.v., n = 6): 17.8 ± 0.3 ms
QTc (Wistar-Han rats; AaH-II* 30 µg/kg i.v., n = 6): 69.5 ± 3.3
RR (Wistar-Han rats; AaH-II* 30 µg/kg i.v., n = 6): 176.8 ± 12.3 ms
T wave area (Wistar-Han rats; AaH-II* 30 µg/kg i.v., n = 6): 8.1 ± 1.9 mV/ms
INaL after 1 s depolarization (hNav1.3; 10 nM): maintained INaL after 1 s pulse
shift in voltage-dependence of activation (hNav1.3; 10 nM): large AaH-II*-triggered hyperpolarizing shift in voltage-dependence of activation
concentration at which INaL is triggered / becomes noticeable (hNav1.3; [5]): 0.1 nM
effect on peak current amplitude or INaL measured at 1 sec depolarization (hNav1.5 [2]): absence of effect
average frequency of SCR events ([3]; 0.1 nM AaH-II*): 14 SCR/min
cells presenting SCR events (SCR cells / cells) ([3]; 0.1 nM peptide, 0.5 Hz pacing, 37°C, 5 min application): 13 out of 23
calcium transient amplitude and time to peak ([3]; 1 or 3 nM AaH-II*): slightly reduce the amplitude of the calcium transients and slow the time to peak
level at time molar (in vivo; 3 ug/kg): < 0.1 nM
level at time molar (in vivo; 15 ug/kg): 2.4 ± 0.4 nM
level at time molar (in vivo; 30 ug/kg): 4.3 ± 0.6 nM
INaL after 1 s depolarization (hNav1.4; 10 nM): lack of effects of AaH-II* on those two parameters
shift in voltage-dependence of activation (hNav1.4; 10 nM): lack of effects of AaH-II* on those two parameters
maximal INaL stimulation (maximal AUC) (hNav1.4; [6]): six
concentration at which INaL is triggered / becomes noticeable (hNav1.4; [5]): 0.3 nM
AUC and INaL at 1 s depolarization ([4]; 0.1 nM, n = 6 cardiomyocytes): half of the cells responded with an increased AUC and INaL
peak current amplitude ([4]; 0.1 nM, n = 6 cardiomyocytes): None of the cells witnessed an increase in peak current amplitude
AUC and INaL at 1 s depolarization ([4]; 10 nM): significant increase in AUC and INaL in all cells recorded
INaL after 1 s depolarization (hNav1.1; 10 nM): maintained INaL after 1 s pulse
shift in voltage-dependence of activation (hNav1.1; 10 nM): large AaH-II*-triggered hyperpolarizing shift in voltage-dependence of activation
maximal INaL stimulation (maximal AUC) (hNav1.1; [6]): ~19 fold
concentration at which INaL is triggered / becomes noticeable (hNav1.1; [5]): 0.1 nM
